Laboratory results reported in patent US11352604B2, “Method of making cardiomyocytes from human pluripotent cells” (Wisconsin Alumni Research Foundation, priority 2016, dated 2022).

Legend:
Type in all cases: cell-based, human
[1] = tested on: day 5 cardiac progenitors; experiment: RNA-seq differential gene expression, day 5 pI:C-primed vs untreated cardiac progenitors
Experimental: Day-5 cells from d3-5 untreated, TGFβ-treated, and pI:C-treated progenitors from the 19-9-11 iPS cell line were separately prepared as above for cell dissociation of progenitors from three different wells of each condition (for 9 total sequencing samples) and isolated as described above for RNA for RT-qPCR. rRNA-reduced Illumina TruSeq™ Stranded total RNA libraries were prepared and 1×100 bp single end sequencing was performed. To map and annotate RNA-seg data, STAR and HTSeq were used, respectively (Anders et al., 2015; Dobin and Gingeras, 2015). Annotated transcript counts were further processed with DeSEq2 for differential gene expression analysis (Love et al., 2014). Gene neighborhood analysis was performed with NEST (Jiang et al., 2015).

[2] = tested on: hPSC-CM sheets from replated progenitors; experiment: Video edge detection / beating analysis of cardiomyocyte sheets
Experimental: For quantification of spatial regularity and graphical presentation of time averaged beating in microtissue from the H9-cTnT-GFP (FIGS. 9A, C) or 19-9-11 (FIG. 9B) cell lines, .avi video files of low-powered (2.5× magnification) fields were recorded at a resolution of 1268×720 and a frame rate of 20/second. These videos were exported into a series of sequential .tiff files using Adobe Premiere, and then analyzed in MATLAB using previously described coding algorithms (Huebsch et al., 2015). Calculations of beat rate (before and after ivrabradine, […] for 2 hours, Sigma) were performed manually in the 19-9-11 cell line and multifocal patterns in untreated progenitor-derived sheets were represented as the average rate of beating for all foci present in a field.

hPSC-CMs = experiment: Cardiomyocyte yield from dissociated and replated progenitors; conditions: primed vs untreated
Experimental: For dissociation of day 5 cells (for destructive analyses or live cell replating experiments), progenitors were dissociated with Versene (Thermo Fisher Scientific) for 10 minutes at 37° C., pipetted up and down 40 times, and then neutralized 1:1 v/v versene solution with “K20” medium (DMEM/F12 with 1×NEAA, 1× Glutamine, 0.1 mM (3-mercaptoethanol, and 20% Knockout Serum Replacer by volume, all Thermo Fisher Scientific). For destructive analyses, pellets were made by centrifugation at 1.1×1000 g for 5 minutes, aspiration of medium supernatant, snap-freezing in liquid nitrogen, and kept at −80° C. for until pellet lysis for DNA, protein, or RNA isolation.
For replating of progenitors and microtissue formation, after neutralization and cell counting, 0.8 million day-5 progenitors per well were spun down at 100×g as above and resuspended and plated in 1 mL K20 with 10 μM Y-27632 ROCK-inhibitor (Tocris) into Synthemax® II-SC coated 12 well plates (Corning). Media was then changed daily in 2 mL of “K2” (same formulation as K20 above, but with just 2% Knockout Serum Replacer), and changed daily. Differentiating hPSC-CMs from replated progenitors in this protocol beat by day 8 to 12.

[3] = day 5 progenitors, out of ~10,500 genes detected

polyinosinic-polycytidylic acid [pI:C]
number of genes significantly downregulated [1, 3]: 912 genes | number of genes significantly upregulated [1, 3]: 514 genes | log2FoldChange ([1]; gene ACTN3): 0.6193 | log2FoldChange ([1]; gene ADAMTS18): −1.365 | log2FoldChange ([1]; gene ADCY5): 0.9552 | log2FoldChange ([1]; gene ADCY8): 0.6342 | log2FoldChange ([1]; gene ALDH1A2): 1.067 | log2FoldChange ([1]; gene ANKRD18A): 1.148 | log2FoldChange ([1]; gene AQP3): 0.8778 | log2FoldChange ([1]; gene ARL15): 0.6459 | log2FoldChange ([1]; gene ARSI): 0.6043 | log2FoldChange ([1]; gene ATP8B4): −1.545 | log2FoldChange ([1]; gene BAI2): 0.6046 | log2FoldChange ([1]; gene C20orf103): 0.9674 | log2FoldChange ([1]; gene CD82): 1.288 | log2FoldChange ([1]; gene CDC25B): 0.6173 | log2FoldChange ([1]; gene CHRNA3): 0.6865 | log2FoldChange ([1]; gene CHRNB4): 0.6085 | log2FoldChange ([1]; gene CNTFR): 0.8038 | log2FoldChange ([1]; gene COL2A1): 0.9666 | log2FoldChange ([1]; gene COL19A1): −0.827 | log2FoldChange ([1]; gene CRNDE): 0.7347 | log2FoldChange ([1]; gene CTNNA2): 0.8199 | log2FoldChange ([1]; gene DKFZp686D0853): 0.782 | log2FoldChange ([1]; gene DKK1): 0.8084 | log2FoldChange ([1]; gene DLL3): 0.7285 | log2FoldChange ([1]; gene DPYSL5): 0.6254 | log2FoldChange ([1]; gene DUSP4): −1.302 | log2FoldChange ([1]; gene EPHB3): 0.6122 | log2FoldChange ([1]; gene ERBB4): −0.836 | log2FoldChange ([1]; gene EYA1): 0.927 | log2FoldChange ([1]; gene FAM98B): 1.008 | log2FoldChange ([1]; gene FHDC1): 0.6831 | log2FoldChange ([1]; gene FOXC1): 0.9077 | log2FoldChange ([1]; gene FOXC2): 0.8203 | log2FoldChange ([1]; gene FOXL1): 1.223 | log2FoldChange ([1]; gene GJA4): −0.828 | log2FoldChange ([1]; gene GPC3): 0.6647 | log2FoldChange ([1]; gene GPR55): −1.691 | log2FoldChange ([1]; gene HAND1): −1.326 | log2FoldChange ([1]; gene HAPLN3): 0.8468 | log2FoldChange ([1]; gene HEY1): 0.6706 | log2FoldChange ([1]; gene HLA-DQA2): 0.881 | log2FoldChange ([1]; gene IFI16): 1.021 | log2FoldChange ([1]; gene IP6K3): 0.6953 | log2FoldChange ([1]; gene IRX3): 0.7452 | log2FoldChange ([1]; gene IRX5): 0.9174 | log2FoldChange ([1]; gene JAG1): 1.453 | log2FoldChange ([1]; gene KCNH7): 0.8627 | log2FoldChange ([1]; gene KCNJ16): −1.26 | log2FoldChange ([1]; gene KIAA0319): 0.6142 | log2FoldChange ([1]; gene KIAA1324): 0.914 | log2FoldChange ([1]; gene LIX1): 0.6361 | log2FoldChange ([1]; gene MMP16): 0.9772 | log2FoldChange ([1]; gene MN1): 0.8939 | log2FoldChange ([1]; gene MT1X): 0.7867 | log2FoldChange ([1]; gene MXRA5): −1.313 | log2FoldChange ([1]; gene MYO7A): 0.815 | log2FoldChange ([1]; gene NEFL): 0.6647 | log2FoldChange ([1]; gene NELL2): 0.6696 | log2FoldChange ([1]; gene NETO1): 0.918 | log2FoldChange ([1]; gene NFKBIZ): 0.7246 | log2FoldChange ([1]; gene NKX3-1): 0.9735 | log2FoldChange ([1]; gene NPY): 1.254 | log2FoldChange ([1]; gene NR2F1): 0.7356 | log2FoldChange ([1]; gene NRCAM): −1.533 | log2FoldChange ([1]; gene NRXN1): 0.724 | log2FoldChange ([1]; gene PANX2): 1.107 | log2FoldChange ([1]; gene PAPPA): 0.9808 | log2FoldChange ([1]; gene PDE1B): 0.9995 | log2FoldChange ([1]; gene PDGFD): 0.6619 | log2FoldChange ([1]; gene PPFIA2): 0.8189 | log2FoldChange ([1]; gene PPFIBP2): −0.835 | log2FoldChange ([1]; gene PPM1J): 0.6364 | log2FoldChange ([1]; gene PPP1R1A): 1.171 | log2FoldChange ([1]; gene PRSS12): 0.817 | log2FoldChange ([1]; gene PRSS23): 0.9765 | log2FoldChange ([1]; gene PTN): 0.7536 | log2FoldChange ([1]; gene PTPN12): 0.7631 | log2FoldChange ([1]; gene RARB): 0.9291 | log2FoldChange ([1]; gene RASSF10): −1.321 | log2FoldChange ([1]; gene RERG): 0.6913 | log2FoldChange ([1]; gene RHBDL3): 0.7861 | log2FoldChange ([1]; gene RND3): 0.6053 | log2FoldChange ([1]; gene ROBO3): 0.6174 | log2FoldChange ([1]; gene SCGB1A1): 0.7028 | log2FoldChange ([1]; gene SIX1): 1.397 | log2FoldChange ([1]; gene SLC24A3): 0.7397 | log2FoldChange ([1]; gene SLC28A2): −1.472 | log2FoldChange ([1]; gene SPOCK3): 0.6961 | log2FoldChange ([1]; gene STAR): 0.7806 | log2FoldChange ([1]; gene SYT4): 0.9363 | log2FoldChange ([1]; gene SYT6): 0.6752 | log2FoldChange ([1]; gene TBX3): −1.289 | log2FoldChange ([1]; gene TMEM132E): 0.6361 | log2FoldChange ([1]; gene TMOD1): −1.407 | log2FoldChange ([1]; gene TMPRSS13): 0.6086 | log2FoldChange ([1]; gene TOX): 0.6437 | log2FoldChange ([1]; gene TRPA1): −1.599 | log2FoldChange ([1]; gene TXNIP): 0.805 | log2FoldChange ([1]; gene USP27X): 0.6946 | log2FoldChange ([1]; gene VEPH1): −1.26 | contraction pattern of cell sheets from dissociated progenitors ([2]; primed progenitors): highly organized, propagating waves of contraction | beat angle range ([2]; sheets from primed relative to untreated progenitors): lower range | increase in yield of cardiomyocytes (hPSC-CMs; replated at high reseeding density): 4 fold | increase in yield of cardiomyocytes (hPSC-CMs; replated at lower density): 6 fold
